Experimental data: US11957766B2, “HNQO1-activatable fluorescent probe for imaging cancer cells in-vitro and in-vivo” (Texas Tech University System, priority 2019, dated 2024)

Key:
IMR90 and HUVECs = experiment: Flow cytometry of NIR-ASM in NQO1-negative normal cell lines; assay type: cell-based, human
Procedure: Detection of NQO1 in live cells. Inspired by the excellent biocompatibility, the inventors investigated its performance in both NQO1 expressing cancer cells (A549, H460) and NQO1 non-expressing normal cells (IMR90, HUVEC). All cells were incubated with NIR-ASM (10 μM) for 60 min, washed with PBS and were imaged under a confocal microscope after counterstaining the nuclei with Hoechst 33342 (FIG. 12A). […] The higher expression of NQO1 protein in A549 and H460 cells and its absence in normal cells, IMR90 and HUVEC as found with western blot analysis correlated with the probe reactivity in cells (FIG. 12B). […] Cell sorting using flow cytometry is a well-established technology in clinical diagnostics and biomedical research. To assess the applicability of the NIR-ASM to rapidly detect and quantify in both cancer and normal cells based on NQO1 expression, the probe was incubated with cell suspensions for 60 min, and about 1×10^4 cells were analyzed on a flow cytometer.
Flow cytometry analysis. The endogenous NQO1 activity of cancer cells and normal cells was determined by flow cytometry after NIR-ASM exposure. Cells were incubated with 10 μM of NIR-ASM for 60 min, harvested by trypsinization and washed with PBS. For inhibitor study, cells were pretreated with NQO1 inhibitor ES936 (100 nM) for 6 h before adding the NIR-ASM. About 1×10^4 cells were analyzed by flow cytometry (λex=488 nm).

NQO1 = NQO1 (Homo sapiens, UniProt P15559); experiment: Kinetics of NQO1 towards NIR-ASM (Michaelis-Menten); assay type: biochemical; set-up: purchased Sigma-Aldrich D1515; details: NQO1 2 μg/mL, NADH 100 μM
Chain of NQO1 (P15559 whole entry): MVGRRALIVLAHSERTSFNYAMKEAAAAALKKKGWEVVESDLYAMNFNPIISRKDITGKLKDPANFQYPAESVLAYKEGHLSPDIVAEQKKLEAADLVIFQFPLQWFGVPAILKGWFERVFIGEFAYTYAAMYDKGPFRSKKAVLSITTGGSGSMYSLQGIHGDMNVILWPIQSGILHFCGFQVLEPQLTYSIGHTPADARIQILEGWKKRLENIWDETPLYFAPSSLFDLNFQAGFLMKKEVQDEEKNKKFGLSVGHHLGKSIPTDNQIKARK
Procedure: Next, the kinetics of fluorescent product formation was assessed. […] From this experiment, the initial rate of ASM formation, V (μmol min^−1 μg NQO1^−1), was calculated and then plotted as a function of NIR-ASM concentration (FIG. 10C).
Kinetic studies. Kinetic studies were performed using a microplate reader under philological conditions (PBS with 0.1% of BSA at 37° C.). The assay buffer contained 2 μg/mL of NQO1, 100 μM NADH and different concentrations of NIR-ASM (0-100 μM) in a total volume of 100 μL. Time-dependent fluorescence measurements were carried out to monitor the release of ASM by NQO1 activation of NIR-ASM (λex/em 460/646), and the data were collected every minute for 90 minutes. This assay was repeated two times in triplicate and the fluorescence readings were optimized to a standard curve of ASM of known concentration and calculated the velocity in terms of μmol^−1 min^−1 μg NQO1. A plot of the velocities and NIR-ASM concentration was used to obtaining the apparent kinetic parameters Km and Vmax from nonlinear regression analysis and Michaelis-Menton constant using the GraphPad Prism.

[1] = system: human NQO1 transfected MDA-MB-231 cells; experiment: NIR-ASM in NQO1 gene transfected MDA-MB-231 cells; assay type: cell-based; details: microscopy and flow cytometry
Procedure: Chemical and genetic approaches confirm the specificity of NIR-ASM for NQO1 in live tumor cells. A fluorescence probe with high sensitivity, simple operation, and excellent specificity will be an asset for the detection of NQO1 in situ. To assess the substrate selectivity of NIR-ASM for NQO1, both A549 and H460 cells were pretreated with 100 nM of NQO1 inhibitor ES936 for 6 h, before incubating with 10 μM NIR-ASM. […] The effect of ES936 on endogenous NQO1 activity and subsequent reactivity with NIR-ASM was also determined by flow cytometry. […] The presence of NQO1 protein in the transfected MDA-MB-231 cells and its absence in the untransfected control was confirmed by immunoblotting (FIG. 13E). Subsequently, the NQO1-negative and positive MDA-MB-231 cell lines were incubated with NIR-ASM and analyzed by fluorescence microscopy and flow cytometry for activation of the probe.
NQO1 plasmid transfection. Cells were seeded at 60% confluence in six-well plates 16 h before transfection with the desired plasmids. Transfections were carried using a plasmid expressing wild-type NQO1 (pCDNA3 NQO1-Flag, addgene, 61729) and X-tremeGENE DNA transfection reagent (Roche) according to manufacturer instructions. One μg DNA was used in each transfection and cell extracts were prepared 24 h post-transfection to confirm NQO1 protein expression by Western blotting.

DAOY and T98G cells = experiment: Flow cytometry of NQ-DCP activation; assay type: cell-based, human; details: 10 μM, λem=586/40, about 1×10^4 cells
Procedure: Applicability of NQ-DCP for Flow Cytometry. Flow cytometry assays were used to assess the applicability of the NQ-DCP probe to rapidly detect and quantify tumor cells containing hNQO1. The probe was incubated with cell suspensions (DAOY and T98G) for 30 min and a flowcytometry was used to measure the fluorescence (λem=586/40) in about 1×10^4 individual cells.
Cell Culture, Fluorescence Imaging, and Flow Cytometry Analysis. Brain tumor cells and astrocytes were grown in Dulbecco's modified Eagle's (DMEM) medium containing 10% Fetal Bovine Serum and 1% penicillin/streptomycin in a humidified atmosphere of 5% CO2 at 37° C. For fluorescence imaging, initially, cells were seeded into 6-well plate and cultured overnight in respective media at 37° C. Media was replaced with fresh medium containing 10 μM NQ-DCP and incubated at 37° C. for 60 min and then the medium was replaced with PBS and live cells were imaged using a fluorescence microscope. For inhibitor study, cells were pretreated with NQO1 inhibitor ES936 (100 nM) for 6 h before adding the NQ-DCP. For determining endogenous hNQO1 activity in cancer cells using flow cytometry, about 10×10^4 cells were incubated with 10 μM of NQ-DCP for 60 min and were analyzed using flow cytometry.

[2] = system: brain tumor (DAOY, T98G, and U87MG) and normal (astrocytes) cells; experiment: Cytotoxicity of NQ-DCP, resazurin reduction assay; assay type: cell-based, human; details: 100 μM, 72 h incubation
Procedure: Visualization of Cancer Cells by Fluorescence Imaging of hNQO1. […] The cytotoxicity of NQ-DCP was initially evaluated in cultured brain tumor (DAOY, T98G, and U87MG) and normal (astrocytes) cells to assess its biocompatibility using the resazurin reduction assay. […] Cells were incubated with NQ-DCP (10 μM) for 60 min, washed with PBS and were imaged under a fluorescence microscope.

Row | maximum velocity (Vmax) (NQO1) [μmol min^−1 mg NQO1^−1] | SMILES | flow cytometry fluorescence signal, negative normal cells (IMR90 and HUVECs; 60 min, about 1×10^4 cells) | intracellular stability (IMR90 and HUVECs; sustained low fluorescence in normal cells) | fluorescence after NQO1 gene transfection [1] | flow cytometry fluorescence signal (DAOY and T98G cells) | cytotoxicity [2]
1 | 0.00419±0.00003 | CC1=C(C)C(=O)C(C(C)(C)CC(=O)Nc2ccc(/C=C/C3=CC(=C(C#N)C#N)CC(C)(C)C3)cc2)=C(C)C1=O [NIR-ASM, (E)-N-(4-(2-(3-(dicyanomethylene)-5,5-dimethylcyclohex-1-en-1-yl)vinyl)phenyl)-3-methyl-3-(2,4,5-trimethyl-3,6-dioxocyclohexa-1,4-dien-1-yl)butanamide] | minimal fluorescence | intracellular stability of NIR-ASM without any non-specific activation | intense fluorescence |  | 
2 |  | CC1=C(C)C(=O)C(C(C)(C)CC(=O)Oc2ccc(/C=C/C3=CC(=C(C#N)C#N)CC(C)(C)C3)cc2)=C(C)C1=O [NQ-DCP] |  |  |  | high-intensity unimodal distribution of signal | nontoxic
